# Key:
# 5-lipoxygenase = target: T1, 5-lipoxygenase (Rattus norvegicus, UniProt P12527); experiment: 5-Lipoxygenase activity-inhibiting action (5-HETE biosynthesis, rat basophil leukemia-1 cell supernatant); type: biochemical
# T1 construct: The resulting supernatant liquid was used as an enzymatic solution; endogenous in cells; host or cells: rat basophil leukemia-1 (RBL-1) cells, supernatant after sonication
# T1 sequence (P12527 1-673): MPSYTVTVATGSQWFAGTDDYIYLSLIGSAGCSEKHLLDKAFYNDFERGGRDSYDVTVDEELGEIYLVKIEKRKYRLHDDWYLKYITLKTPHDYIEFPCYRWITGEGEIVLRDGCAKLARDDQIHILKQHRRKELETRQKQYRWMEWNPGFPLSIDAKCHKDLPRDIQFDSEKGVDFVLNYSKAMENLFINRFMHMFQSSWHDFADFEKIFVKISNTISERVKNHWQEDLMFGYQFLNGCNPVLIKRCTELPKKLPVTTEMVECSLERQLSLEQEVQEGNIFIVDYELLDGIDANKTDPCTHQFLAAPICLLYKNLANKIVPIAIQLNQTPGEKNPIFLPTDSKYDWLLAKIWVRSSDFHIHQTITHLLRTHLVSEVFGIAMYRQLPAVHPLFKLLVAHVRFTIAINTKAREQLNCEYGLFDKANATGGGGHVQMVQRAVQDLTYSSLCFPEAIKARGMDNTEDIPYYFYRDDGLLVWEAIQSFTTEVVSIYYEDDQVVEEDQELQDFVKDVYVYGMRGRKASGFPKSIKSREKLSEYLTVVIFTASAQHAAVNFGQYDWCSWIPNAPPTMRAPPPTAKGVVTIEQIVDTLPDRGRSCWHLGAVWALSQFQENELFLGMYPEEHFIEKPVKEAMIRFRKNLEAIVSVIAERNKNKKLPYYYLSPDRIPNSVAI
# Protocol: 5-Lipoxygenase activity-inhibiting action
# Rat basophil leukemia-1 cells were suspended in a 50 mM phosphate buffer solution (PBS) of pH 7.0 containing 1 mM of EDTA, 0.1% of gelatin and 14 μM of indometacin so that the resulting suspension contained 5×10^7 cels cells/ml ml. The suspension was subjected to an ultrasonic treatment and then to centrifugation (10,000G, 20 minutes). The resulting supernatant liquid was used as an enzymatic solution. 10 μl of a test compound solution was added to 460 μl of the enzymatic solution and a reaction was conducted at 37° C. for 5 minutes. Thereto were added 7.4 KBq of ^14 C-arachidonic acid and a 100 mM aqueous calcium chloride solution, and a reaction was conducted at 37° C. for 10 minutes. The reaction mixture was ice-cooled and then adjusted to pH 3 with 1N hydrochloric acid to terminate the reaction. Thereafter, extraction with 5 ml of chloroform was conducted. The extract was subjected to evaporation to dryness in the presence of nitrogen gas, and the residue was dissolved in a 2:1 mixture of chloroform and methanol. The solution was developed by thin-layer chromatography using Kieselgel 60 F254, according to the method of Jakschik, B. A. et al. [Biachen. Biophys. Res. Commun. 95, 103 (1980)]. The radioactivity of 5-hydroxyeicosatetraenoic acid (5-HETE) was measured by a liquid scintillation counter (LSC-900 manufactured by Aroka) to determine the ratio of 5-HETE biosynthesis inhibition of test compound-added group to control group, after which there was determined a concentration of test compound at which the activity of 5-lipoxygenase was inhibited by 50%, i.e. an IC50. The test compound was used in a diluted form by dissolving it in dimethyl sulfoxide. The results are shown in Tables 1, 2 and 3 which appear later.
# mast cells = experiment: Membrane-stabilizing action (mast cell degranulation); type: cell-based; conditions: Rattus norvegicus, 10^-4 M
# Protocol: Membrane-stabilizing action
# This test was conducted according to the method of Schwartz, J. et al. [Int. Arch. Allergy 30, 67 (1966)].
# That is, 10 ml each of Hnak's balanced salt solution containing 10 units/ml of heparin was administered to rats intraperitoneally. After gentle massage of the abdomen for 2 minutes, peritoneal exudate cells (PEC) were obtained and washed 3 times with PBS containing 0.1% of bovine serum albumin (BSA). Mast cells in the suspension of PEC were stained with 0.2% of Neutral Red, and PEC were adjusted to a concentration of 4×10^5 mast cells/ml using PBS containing 0.1% of BSA. The cell suspension (50 μl) was incubated with 50 μl of a test compound solution at 37° C. for 5 minutes, then challenged with anti-egg albumin rat serum (50 μl, 1:40) and egg albumin (50 μl, 10 mg/ml) and further incubation was performed for 10 minutes. The reaction mixture was ice-cooled to terminate the reaction. Thereafter the number of mast cells undergoing degranulation was assessed under microscope observation to determine the menbrane-stabilizing action of the test compound.
# tracheal chain = experiment: Histamine antagonism (isolated guinea pig tracheal chain contraction); type: cell-based; conditions: Cavia porcellus, 5 min; 10^-5 M test compound; 3×10^-5 M histamine hydrochloride
# Protocol: Guinea pigs were sacrificed and the tracheae were isolated. Each trachea was cut open at the center of the tracheal cartilage, and was cut in the vertical direction to separate into individual segments. Three of these segments were combined to form a tracheal chain. The tracheal chain was suspended in a Magnus tube filled with a Tyrode's solution (NaCl: 137 mX, KCl: 2.7 mM, CaCl2 : […], MgCl2 : 1.1 mM, NaHPO4 : 0.4 mM, NaHCO3 : 12.0 mM, glucose: 5.6 mM) kept at 37° C., while applying a load of 0.5 g. A mixed gas consisting of 95% of O2 and 5% of CO2 was constantly passed through the tube, and the contraction of the smooth muscle was recorded on a polygraph (U-228 manufactured by NIPPON DENKI KAGAKU) via an isotonic transducer (TD-112S manufactured by Nihon Koden). Each test compound was incubated for 5 minutes before the addition of 3×10^-5 M of histamine hydrochloride (a product of Wako Pure Chemical Industries, Ltd.).
# TXA2 synthetase = target: T2, TXA2 synthetase (Homo sapiens, UniProt P24557); experiment: TX synthesis-inhibiting action (thromboxane synthetase kit, human platelet microsome); type: biochemical; conditions: 3 × 10^-6 M
# T2 construct: human platelet microsome fraction; purchased Funakoshi: Eldan Tech; host or cells: human platelet microsome fraction (thromboxane synthetase kit)
# T2 sequence (P24557 1-533): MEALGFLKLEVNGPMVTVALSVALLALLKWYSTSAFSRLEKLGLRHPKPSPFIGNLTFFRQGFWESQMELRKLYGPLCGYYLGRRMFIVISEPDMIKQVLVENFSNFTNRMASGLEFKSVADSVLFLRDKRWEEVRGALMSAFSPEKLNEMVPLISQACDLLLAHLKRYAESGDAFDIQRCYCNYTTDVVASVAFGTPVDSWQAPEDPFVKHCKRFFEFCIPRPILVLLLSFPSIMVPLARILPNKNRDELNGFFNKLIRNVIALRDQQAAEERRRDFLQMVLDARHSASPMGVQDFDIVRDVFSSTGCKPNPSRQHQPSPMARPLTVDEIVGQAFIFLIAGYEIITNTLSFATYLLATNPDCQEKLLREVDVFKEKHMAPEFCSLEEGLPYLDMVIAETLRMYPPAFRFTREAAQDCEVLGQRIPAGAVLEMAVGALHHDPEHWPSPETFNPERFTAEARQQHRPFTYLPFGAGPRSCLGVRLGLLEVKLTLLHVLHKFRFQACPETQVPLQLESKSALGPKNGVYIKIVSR
# Protocol: TX synthesis-inhibiting action
# TXA2 synthetase activity was measured by the use of a thromboxane synthetase kit (Funakoshi: Eldan Tech). That is, 0.97 mg of a human platelet microsome fraction was suspended in 1 m of a 50 mM tris-0.1M sodium chloride buffer solution of pH 7.5, and the resulting suspension was ice-cooled. […] of the suspension was placed in a sample tube and a test compound was added thereto. The resulting mixture was preincubated at 25° C. exactly for 3 minutes. Thereto was added 2μ of an ice-cooled acetone solution containing 0.05 mg/m of PGH2, and the resulting mixture was incubated at 25° C. exactly for 3 minutes. 10μ of a 0.25 mM FeCl2 solution was added to terminate the reaction. The resulting mixture was allowed to stand at room temperature for 15 minutes and then subjected to centrifugation at 1,000 G at 4° C. for 10 minutes. The TXB2 content contained in the supernatant was measured by RIA (thromboxanes B2 [3H] RIA Kit: NEN Research Products). The test compound was dissolved in DMSO or distilled water before use. The test was performed in triplicate or quadruplicate assays.
compound,measurement,setting,value
"CC(=O)Oc1cccc2cc(C(=O)NCCN3CCN(CCSCc4cccs4)CC3)c(O)cc12 [Example 4, N-[2-[4-(thienylmethylthio)ethyl-1-piperazinyl]ethyl]-5-acetoxy-3-hydroxy-2-naphthamide]",IC50,5-lipoxygenase; Table 1,320 nM
same,inhibition at 100 µM,mast cells,53.7%
"CC(=O)Oc1cccc2cc(C(=O)NCCN3CCC(OC(c4ccccc4)c4ccccc4)CC3)c(O)cc12 [Example 5, N-[2-[4-(benzhydryloxy)piperidino]ethyl]-5-acetoxy-3-hydroxy-2-naphthamide]",IC50,5-lipoxygenase; Table 1,410 nM
same,inhibition at 100 µM,mast cells,96.5%
same,inhibition at 10 µM,tracheal chain,65.4%
CC(=O)Oc1cccc2cc(C(=O)NCCN3CCN(CCSC(c4ccncc4)c4ccc(Cl)cc4)CC3)c(O)cc12 (stereo not drawn) [Example 15],inhibition at 3 µM,TXA2 synthetase,73.2%
same,IC50,5-lipoxygenase; Table 3,300 nM
O=C(NCCN1CCN(CCSC(c2ccc(Cl)cc2)c2ccc(Cl)cc2)CC1)c1cc2cccc(O)c2cc1O [Example 21],IC50,5-lipoxygenase; Table 1,250 nM
same,inhibition at 100 µM,mast cells,100%
"O=C(NCCN1CCC(OC(c2ccccc2)c2ccccc2)CC1)c1cc2cccc(O)c2cc1O [Example 34, N-[2-[4-(benzhydryloxy)piperidino]ethyl]-3,5-dihydroxy-2-naphthamide]",IC50,5-lipoxygenase; Table 1,150 nM
same,inhibition at 100 µM,mast cells,41%
same,inhibition at 10 µM,tracheal chain,64.7%
"O=C(NCCN1CCC(OC(c2ccccc2)c2ccccc2)CC1)c1cc2cc(O)ccc2cc1O [Example 35, N-[2-[4-(benzhydryloxy)piperidino]ethyl]-3,7-dihydroxy-2-naphthamide]",IC50,5-lipoxygenase; Table 2,270 nM
same,inhibition at 10 µM,tracheal chain,67.9%
"O=C(NCCN1CCC(OC(c2ccccc2)c2ccccc2)CC1)c1cc2cccc(OCc3cccnc3)c2cc1O [Example 42, N-[2-[4-(benzhydryloxy)piperidino]ethyl]-3-hydroxy-5-(3-pyridylmethoxyl)-2-naphthamide]",IC50,5-lipoxygenase; Table 1,5100 nM
same,inhibition at 100 µM,mast cells,60.1%
"O=C(NCCN1CCC(OC(c2ccccc2)c2ccccc2)CC1)c1cc2cccc(OCc3ccncc3)c2cc1O [Example 43, N-[2-[4-(benzhydryloxy)piperidino]ethyl]-3-hydroxy-5-(4-pyridylmethoxyl)-2-naphthamide]",inhibition at 3 µM,TXA2 synthetase,75.6%
same,IC50,5-lipoxygenase; Table 2,110 nM
same,inhibition at 100 µM,mast cells,80.7%
same,inhibition at 10 µM,tracheal chain,48.2%
"O=C(NCCCCCSCc1cccs1)c1cc2cccc(O)c2cc1O [Example 44, N-[5-(2-thienylmethylthio)pentyl]-3,5-dihydroxy-2-naphthamide]",inhibition at 3 µM,TXA2 synthetase,61.8%

# From US5324728A, “Naphthoic acid derivative” (Fujirebio Inc., priority 1990, dated 1994)
